Results as given in patent US10407440B2, “Therapeutic agent for motor disorders” (KYOWA HAKKO KIRIN CO., LTD., priority 2009, dated 2019).

Key:
Type in all cases: in vivo
[1] = tested on: MPTP-treated common marmoset that developed motor complication; test: Test Example 4: combination with L-DOPA in MPTP-treated common marmoset that developed motor complication
Description: 10 mg/kg of L-DOPA (containing 2.5 mg/kg of benserazide hydrochloride) was administered by gavage to common marmoset that developed chronic parkinsonian symptoms by treatment with MPTP by the method described in Test Example 3 (MPTP-treated marmoset) twice a day at about 6 hr intervals. L-DOPA was repeatedly administered for more than 3 weeks to induction of motor complication (dyskinesia symptom, wearing-off phenomenon, on-off fluctuation and the like) in MPTP-treated marmoset in addition to parkinsonian symptoms, and the marmoset was used for the test. […] The locomotor activity was automatically measured using a computer by a measuring apparatus with a photocell. […] The subject animal was placed in an observation cage (with locomotor activity measuring apparatus) one day before the test compound administration for preconditioning to the environment. The symptoms of Parkinson's disease were continuously monitored through one-way mirror and disability score was scored each 10 min for 6 hr.

[2] = tested on: MPTP-treated common marmoset that developed motor complication; test: Test Example 5: influence on dyskinesia in MPTP-treated common marmoset that developed motor complication; conditions: L-DOPA alone 1.25, 2.5, 5.0, 7.5 and 10 mg/kg (with benserazide hydrochloride)
Description: 10 mg/kg of L-DOPA (containing 2.5 mg/kg of benserazide hydrochloride) was administered to common marmoset that developed chronic parkinsonian symptoms by treatment with MPTP by the method described in Test Example 3 (MPTP-treated marmoset) twice a day at about 6 hr intervals. L-DOPA was repeatedly administered for more than 3 weeks to induction of motor complication (dyskinesia symptom, wearing-off phenomenon, on-off fluctuation and the like) in MPTP-treated marmoset in addition to parkinsonian symptoms, and the marmoset was used for the test. The dyskinesia severity was rating using the rating scale described in a previous report [[…] of Neurology, vol. 43, p. 507 (1998)] as in Test Example 2. […] The subject animal was placed in an observation cage (with locomotor activity measuring apparatus) one day before the test compound administration for preconditioning to the environment. The dyskinesia symptoms were observed through one-way mirror and scored each 20 min for 6 hr. [table] The locomotor activity was automatically measured using a computer by a measuring apparatus with a photocell.

[3] = tested on: MPTP-treated common marmoset; test: Test Example 3: combination with L-DOPA in MPTP-treated common marmoset, motor disability score; conditions: L-DOPA alone 2.5, 5.0, 7.5 and 10.0 mg/kg (with 1/4 amount benserazide hydrochloride)
Excerpt: Parkinson's disease is a disease based on the progressive degeneration and loss of dopaminergic neuron in substantia nigra-striatum. In primates, a treatment with MPTP, which is a dopamine neurotoxin, causes selective degeneration and loss of dopaminergic neuron in substantia nigra-striatum and induces symptoms of akinesia, muscle rigidity and the like. The primates treated with MPTP are known as the model of Parkinson's disease [Proceedings of the National Academy of Science USA, vol. 80, p. 4546 (1983)]. In addition, common marmoset belongs to Haplorhini and is known to show the symptoms of Parkinson's disease by MPTP, like other Haplorhini [Neuroscience Letter, vol. 57, p. 37 (1985)]. […] The parkinsonian symptoms were judged using the index described in a previous report [Annales of Neurology, vol. 43, p. 507 (1998)]. All compounds were used as a suspension in 0.5% MC400, 10% aqueous sucrose solution. The subject animal was placed in an observation cage (with locomotor activity measuring apparatus) one day before the test compound administration for preconditioning to the environment. The symptoms of Parkinson's disease were continuously monitored through one-way mirror and disability score was scored each 10 min for 6 hr.
The locomotor activity was automatically measured using a computer by a measuring apparatus with a photocell.

- dyskinesia [2]: dyskinesia was induced
SMILES: N[C@@H](Cc1ccc(O)c(O)c1)C(=O)O [L-DOPA]
- duration (on-time) of anti-parkinsonian activities of L-DOPA ([1]; L-DOPA 2.5 mg/kg alone, gavage): about 50 min
- minimum disability score ([1]; L-DOPA 2.5 mg/kg alone, gavage): 5.33±0.80
- parkinsonian symptoms ([1]; L-DOPA alone 2.5 mg/kg or 10 mg/kg (with benserazide hydrochloride)): decreased with the increasement of dosage
- parkinsonian symptoms [3]: decreased within increasement of the dosage
